Experimental data reported in patent US10544472B2, “Multiplexing transcription factor reporter protein assay process and system” (Attagene, Inc., priority 2014, dated 2020).

What was measured:
NF-κB response element = assay: Multiplexed Gluc-tag reporter assay, NF-κB response element; assay type: cell-based
Experimental: (§1) Two separate detection assays were conducted to check the profile of FCICC (6-Formylindolo [3, 2-b] carbazole Indolo [3,2-b] carbazole-6-carboxaldehyde-5, 11-dihydro, an AhR response element inducer, commercially available from Biomol, Plymouth Meeting, Pa.) and IL-1β and TNF-α (NF-κB response element inducer).
(§2) Purified Antibodies were diluted in DPBS with 5% glycerol at 5 μg/ml concentration. […] of diluted antibody solutions were dispensed onto wells of a […] 600 plate (Greiner Bio-One, Monroe, N.C.), and the plate was tapped gently to distribute the antibody solutions evenly on the bottom of the well. The plate was sealed tightly with a PCR sealing film. The antibody plate was stored at 4° C. for one week for antibodies to bind.
(§3) At the end of incubation, 200 μl of Blocking Reagent (Attagene, Research Triangle Park, N.C.) was added to the wells to block the unbounded surface, either for 1 hour at room temperature for quick use, or at 4° C. overnight. The plate was washed 4 times with DPBS (Invitrogen, Carlsbad, Calif.) by flicking the solution out into a waste container and then blotted dry briefly on layers of paper towel. Target samples were diluted in Binding Reagent (Attagene, Inc., Research Triangle Park, N.C.). After the washing, 100 μl of diluted testing samples were added to the well and incubated at RT for 1 hour with gentle rocking agitation.
(§4) After the incubation, samples were removed by gently flicking and the plate was washed 4 times with DPBS as above. […] The reading was normalized against the minimal promoter driven reporter.

[1] = Stability of coelenterazine substrate in assay reagents; assay type: physicochemical; settings: over 70 minutes after dilution from methanol stock into assay reagents
Experimental: It is well known that coelenterazine is not stable in aqueous solutions. FIGS. 3C and 3D show the stability profiles of coelenterazine substrate in different assay reagents after being diluted from its methanol stock. A solution of Gluc enzyme was injected at different time points into substrates that were prepared at the same time. The overall signal strength decreased about ten times over 70 minutes and there was no significant difference among these buffers in the stability of the substrate. Once again, the Attagene reagent provided better sensitivity and stronger RLU output.

CRE = assay: Multiplexed Gluc-tag reporter assay, CRE; assay type: cell-based; settings: twelve response elements/Gluc tags, four assays (FIG. 8)
Experimental: as §2, §3, §4

AhR response element = assay: Multiplexed Gluc-tag reporter assay, AhR response element; assay type: cell-based
Experimental: as §1, §2
At the end of incubation, 200 μl of Blocking Reagent (Attagene, Research Triangle Park, N.C.) was added to the wells to block the unbounded surface, either for 1 hour at room temperature for quick use, or at 4° C. overnight. The plate was washed 4 times with DPBS (Invitrogen, Carlsbad, Calif.) by flicking the solution out into a waste container and then blotted dry briefly on layers of paper towel. […]
as §4

[2] = seven antibodies on 96-well plate, two separate detection assays (FIGS. 7A, 7B)
[3] = twelve response elements/Gluc tags, four assays (FIG. 8)

| Molecule | induction of NF-κB (NF-κB response element; [2]) | induction of NF-κB (NF-κB response element; [3]) | also measured |
| --- | --- | --- | --- |
| IL-1β: NF-κB response element inducer | specific induction | specific induction |  |
| Oc1ccc(Cc2nc3c(Cc4ccccc4)nc(-c4ccc(O)cc4)cn3c2O)cc1 [coelenterazine] |  |  | decrease of overall signal strength [1]: about ten |
| C=C[C@@]1(C)CC(=O)[C@]2(O)[C@@]3(C)[C@@H](O)CCC(C)(C)[C@@H]3[C@H](O)[C@H](OC(C)=O)[C@@]2(C)O1 [FSK] |  |  | induction of CRE (CRE): specific induction |
| O=Cc1c2[nH]c3ccccc3c2cc2c1[nH]c1ccccc12 [FCICC, 6-Formylindolo [3,2-b] carbazole Indolo [3,2-b] carbazole-6-carboxaldehyde-5, 11-dihydro] |  |  | induction of AhR (AhR response element; [2]): specific induction; induction of AhR (AhR response element; [3]): specific induction |
| TNF-α | specific induction | specific induction |  |
